# Data: ChEMBL document CHEMBL1123353, “3,17 beta-Dihydroxy-20,21-epoxy-19-norpregna-1,3,5(10)-trienes: synthesis, rearrangement, cytotoxicity, and estrogen-receptor binding” (J Med Chem, 1986)
# What was measured:
# HeLa = assay: Compound was evaluated for toxicity against HeLa S3 cells; format: functional, cell-based; details: Homo sapiens
# GH3 = assay: Compound was evaluated for toxicity against GH3 cells; format: functional, cell-based; details: Rattus norvegicus
Structure (SMILES),IC50 (HeLa) [µM],IC50 (GH3) [µM]
C[C@]12CC[C@@H]3c4ccc(OC(=O)N(CCCl)CCCl)cc4CC[C@H]3[C@@H]1CC[C@@H]2O [ESTRAMUSTINE],3.4,
C[C@]12CC[C@@H]3c4ccc(O)cc4CC[C@H]3[C@@H]1CC[C@@]2(O)[C@@H]1CO1,18.6,17.7
C[C@]12CC[C@@H]3c4ccc(O)cc4CC[C@H]3[C@@H]1CC[C@@]2(O)[C@H]1CO1,6.5,5.5
C=C[C@@]12COC(=O)C(=C)[C@@H]1[C@H]1OC(=O)C(=C)[C@@H]1[C@@H](O)C2 [VERNOLEPIN],3.5,5.2
